Results from ChEMBL document CHEMBL5543153, “Discovery of a Potent Dual Son of Sevenless 1 (SOS1) and Epidermal Growth Factor Receptor (EGFR) Inhibitor for the Treatment of Prostate Cancer” (J Med Chem, 2024).
Active and inactive are the calls of the source. The calls are words filed in the database; no cut-off is given here.

Tests used:
[1] = molecular target: Epidermal growth factor receptor (Homo sapiens, UniProt P00533); assay: Inhibition of EGFR (unknown origin) using ultra ULight GT peptide as substrate incubated for 2 hrs
[2] = molecular target: T1, Son of sevenless homolog 1 (Homo sapiens) (UniProt Q07889); assay: Inhibition of SOS1 in human PC-3 cells assessed as downregulation of RAS-GTP expression at 0.5 uM incubated for 15 mins by Western blotting analysis; format: cell-based
T1 sequence (whole entry): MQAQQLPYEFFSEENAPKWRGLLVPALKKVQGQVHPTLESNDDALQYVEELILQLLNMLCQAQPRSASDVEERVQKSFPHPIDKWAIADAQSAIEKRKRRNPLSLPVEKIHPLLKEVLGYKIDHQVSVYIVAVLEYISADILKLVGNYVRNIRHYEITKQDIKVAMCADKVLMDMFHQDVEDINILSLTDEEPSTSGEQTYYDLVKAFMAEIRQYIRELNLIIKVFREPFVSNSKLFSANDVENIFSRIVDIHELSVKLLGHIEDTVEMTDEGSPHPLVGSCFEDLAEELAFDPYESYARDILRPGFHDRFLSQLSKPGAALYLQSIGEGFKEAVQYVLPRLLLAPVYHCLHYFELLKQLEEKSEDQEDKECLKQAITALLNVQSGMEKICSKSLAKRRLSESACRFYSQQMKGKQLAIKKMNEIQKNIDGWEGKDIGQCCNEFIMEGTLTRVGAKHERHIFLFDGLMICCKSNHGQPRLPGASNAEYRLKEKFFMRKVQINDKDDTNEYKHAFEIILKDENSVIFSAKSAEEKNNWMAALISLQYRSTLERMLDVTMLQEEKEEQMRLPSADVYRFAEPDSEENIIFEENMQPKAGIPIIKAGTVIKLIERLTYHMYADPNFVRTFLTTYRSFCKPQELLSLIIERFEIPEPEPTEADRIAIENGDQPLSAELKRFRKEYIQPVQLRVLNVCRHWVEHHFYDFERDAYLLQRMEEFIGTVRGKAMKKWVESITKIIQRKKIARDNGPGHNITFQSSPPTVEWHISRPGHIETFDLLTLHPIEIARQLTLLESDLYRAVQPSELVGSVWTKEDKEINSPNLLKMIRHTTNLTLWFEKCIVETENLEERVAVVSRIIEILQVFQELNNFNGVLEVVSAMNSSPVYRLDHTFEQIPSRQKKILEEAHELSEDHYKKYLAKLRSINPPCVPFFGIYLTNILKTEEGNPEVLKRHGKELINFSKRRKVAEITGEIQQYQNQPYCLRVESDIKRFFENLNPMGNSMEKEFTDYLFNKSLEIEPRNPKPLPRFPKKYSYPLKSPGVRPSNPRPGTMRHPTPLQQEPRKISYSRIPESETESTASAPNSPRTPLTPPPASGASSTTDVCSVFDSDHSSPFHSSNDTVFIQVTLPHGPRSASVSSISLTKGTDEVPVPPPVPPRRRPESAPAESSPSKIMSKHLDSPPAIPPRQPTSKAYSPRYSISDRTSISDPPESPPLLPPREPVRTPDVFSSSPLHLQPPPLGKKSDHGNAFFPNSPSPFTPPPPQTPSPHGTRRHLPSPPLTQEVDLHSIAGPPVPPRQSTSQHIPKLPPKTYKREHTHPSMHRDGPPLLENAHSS

[3] = system: PC-3; assay: Induction of apoptosis in human PC-3 cells assessed as viable cells at 0.5 uM by Annexin V-FITC staining based flow cytometry (reference value: 94.9%); format: functional; conditions: read-out: Activity
[4] = system: PC-3; assay: Induction of apoptosis in human PC-3 cells assessed as early apoptotic cells at 12.5 uM by Annexin V-FITC staining based flow cytometry (reference value: 2.64%); format: functional
[5] = system: PC-3; assay: Induction of apoptosis in human PC-3 cells assessed as late apoptotic cells at 2.5 uM by Annexin V-FITC staining based flow cytometry (reference value: 1.93%); format: functional
[6] = system: PC-3; assay: Induction of apoptosis in human PC-3 cells assessed as necrotic cells at 0.5 uM by Annexin V-FITC staining based flow cytometry (reference value: 0.48%); format: functional
[7] = system: PC-3; assay: Induction of apoptosis in human PC-3 cells assessed as upregulation of cleaved caspase-3 expression by Western blotting analysis; format: functional, cell-based
[8] = system: PC-3; assay: Inhibition of colony formation in human PC-3 cells incubated for 15 days by crystal violet staining based microscopic analysis; format: functional, cell-based; conditions: time 15.0 day
[9] = system: PC-3; assay: Induction of cell cycle arrest in human PC-3 cells assessed as accumulation of cells at G1 phase at 2.5 uM by PI staining based flow cytometry (reference value: 75.66%); format: functional
[10] = system: PC-3; assay: Induction of cell cycle arrest in human PC-3 cells assessed as downregulation of CDK4 expression by Western blotting analysis; format: functional, cell-based
[11] = system: HUVEC; assay: Antiangiogenic activity in HUVEC cells assessed as reduction in tube segments at 0.5 to 12.5 uM incubated for 8 hrs by matrigel based microscopic analysis; format: functional, cell-based; conditions: Homo sapiens, dose 0.5-12.5 µM
[12] = system: HUVEC; assay: Antiangiogenic activity in HUVEC cells assessed as reduction of mean mesh at 0.5 to 12.5 uM incubated for 8 hrs by matrigel based microscopic analysis; format: functional, cell-based; conditions: Homo sapiens, dose 0.5-12.5 µM
[13] = system: HUVEC; assay: Inhibition of cell migration in HUVEC cells at 0.5 to 12.5 uM measured after 48 hrs by crystal violet staining based transwell invasion assay; format: functional; conditions: Homo sapiens, dose 0.5-12.5 µM
[14] = system: PC-3; assay: Antitumor activity against human PC-3 cells xenografted in BALB/c mouse assessed as reduction in tumor volume at 20 mg/kg,ip administrated once every 4 days for 24 days; format: functional, organism-based; conditions: time 24.0 day
[15] = system: PC-3; assay: Antitumor activity against human PC-3 cells xenografted in BALB/c mouse assessed as reduction in tumor weight at 20 mg/kg,ip administrated once every 4 days for 24 days; format: functional, organism-based; conditions: time 24.0 day
[16] = Toxicity in BALB/c mouse xenografted with human PC-3 cells assessed as change in body weight at 5 mg/kg,ip administrated once every 4 days for 24 days; format: organism-based; conditions: in vivo, 576 h, time 24 day
[17] = Toxicity in BALB/c mouse xenografted with human PC-3 cells assessed as liver pathological change at 5 mg/kg,ip administrated once every 4 days for 24 days by hematoxylin and eosin staining based analysis; format: organism-based; conditions: in vivo, 576 h, time 24 day
[18] = Toxicity in BALB/c mouse xenografted with human PC-3 cells assessed as liver pathological change at 20 mg/kg,ip administrated once every 4 days for 24 days by hematoxylin and eosin staining based analysis; format: organism-based; conditions: in vivo, 576 h, time 24 day
[19] = Toxicity in BALB/c mouse xenografted with human PC-3 cells assessed as change in AST level at 20 mg/kg,ip administrated once every 4 days for 24 days by automatic biochemical analyzer; format: organism-based; conditions: in vivo, 576 h, time 24 day
[20] = Toxicity in BALB/c mouse xenografted with human PC-3 cells assessed as change in ALT level at 5 mg/kg,ip administrated once every 4 days for 24 days by automatic biochemical analyzer; format: organism-based; conditions: in vivo, 576 h, time 24 day
[21] = Toxicity in BALB/c mouse xenografted with human PC-3 cells assessed as change in ALT level at 20 mg/kg,ip administrated once every 4 days for 24 days by automatic biochemical analyzer; format: organism-based; conditions: in vivo, 576 h, time 24 day
[22] = Toxicity in BALB/c mouse xenografted with human PC-3 cells assessed as change in creatinine level at 20 mg/kg,ip administrated once every 4 days for 24 days by automatic biochemical analyzer; format: organism-based; conditions: in vivo, 576 h, time 24 day

Chain of Epidermal growth factor receptor (P00533 whole entry): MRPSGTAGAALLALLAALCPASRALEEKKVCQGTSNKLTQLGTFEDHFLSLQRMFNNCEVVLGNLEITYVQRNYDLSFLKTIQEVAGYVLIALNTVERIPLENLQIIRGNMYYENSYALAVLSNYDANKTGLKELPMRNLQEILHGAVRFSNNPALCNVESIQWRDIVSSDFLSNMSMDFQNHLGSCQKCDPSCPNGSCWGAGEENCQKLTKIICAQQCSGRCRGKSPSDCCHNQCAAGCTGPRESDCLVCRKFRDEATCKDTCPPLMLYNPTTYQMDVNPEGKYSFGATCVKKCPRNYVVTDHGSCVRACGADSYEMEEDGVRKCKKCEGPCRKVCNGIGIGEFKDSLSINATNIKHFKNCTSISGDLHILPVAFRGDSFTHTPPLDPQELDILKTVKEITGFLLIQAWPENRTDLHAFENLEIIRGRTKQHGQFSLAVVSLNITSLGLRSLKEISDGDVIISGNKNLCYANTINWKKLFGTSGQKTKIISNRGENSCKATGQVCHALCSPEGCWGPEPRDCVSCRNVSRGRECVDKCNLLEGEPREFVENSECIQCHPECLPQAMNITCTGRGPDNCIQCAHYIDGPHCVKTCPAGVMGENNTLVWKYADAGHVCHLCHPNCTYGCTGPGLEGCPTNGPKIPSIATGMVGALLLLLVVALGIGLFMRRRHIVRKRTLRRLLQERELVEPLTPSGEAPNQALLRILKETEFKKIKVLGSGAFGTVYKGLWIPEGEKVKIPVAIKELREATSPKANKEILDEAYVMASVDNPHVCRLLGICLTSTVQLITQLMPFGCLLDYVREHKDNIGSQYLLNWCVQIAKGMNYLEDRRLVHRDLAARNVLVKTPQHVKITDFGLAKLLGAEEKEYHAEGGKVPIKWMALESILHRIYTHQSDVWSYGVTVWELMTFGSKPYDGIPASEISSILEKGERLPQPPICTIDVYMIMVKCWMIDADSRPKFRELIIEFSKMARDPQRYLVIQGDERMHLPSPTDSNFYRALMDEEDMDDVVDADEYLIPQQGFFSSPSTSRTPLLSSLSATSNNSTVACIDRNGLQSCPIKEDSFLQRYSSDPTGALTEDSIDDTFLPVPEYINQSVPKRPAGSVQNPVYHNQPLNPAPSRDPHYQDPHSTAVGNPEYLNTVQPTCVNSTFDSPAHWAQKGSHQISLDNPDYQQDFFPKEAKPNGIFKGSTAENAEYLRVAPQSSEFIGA

## COc1cc2ncnc(N[C@H](C)c3cccc(F)c3)c2cc1OC1CCOCC1
[1]
  IC50: 1.01 nM
[2]
  inhibition: Active
[3]
  viability at 0.5 µM: 84.9%
[4]
  Activity: 21.5%
[5]
  Activity: 3.36%
[6]
  Activity: 0.6%
[7]
  Activity: Dose-Dependent Effect
[8]
  inhibition: Dose-Dependent Effect
[9]
  Activity: 81.85%
[10]
  Activity: Dose-Dependent Effect
[11]
  Activity: Active
[12]
  Activity: Active
[13]
  inhibition: Active
[14]
  Activity: Active
[15]
  Activity: Active
[16]
  Activity: Toxic
[17]
  Activity: Toxic
[18]
  Activity: Toxic
[19]
  Activity: Non-Toxic
[20]
  Activity: Non-Toxic
[21]
  Activity: Non-Toxic
[22]
  Activity: Non-Toxic
